Experiment: Human HepG2 cell viability assay in 384 well format
Assay type: toxicity, cell-based
Set-up: dose 125 nL, time 70.5 hour; concentration not given beside the values
Conditions: HepG2 cells, read-out: Inhibition

O=C(NCc1c[nH]c(=O)[nH]c1=O)C1CCOc2ccccc2C1 (stereo not given)
cytotoxicity at 70.5 h: 8.26%

CN1CCN(C(=O)c2cccc(CN3CCOCC3)c2)CC1
cytotoxicity at 70.5 h: -2.6%

Cc1nnc(NC(=O)CN2CCc3nn(C(C)C)c(=O)cc3C2)s1
cytotoxicity at 70.5 h: -6.14%

Cc1cc(C)cc(C2(C(=O)NC(C)Cn3ccnc3)CC2)c1 (stereo not given)
cytotoxicity at 70.5 h: 9.35%

CCCn1cc(-c2ccnc(NC3CCCc4ccccc43)n2)c(C)n1 (stereo not given)
cytotoxicity at 70.5 h: 18.9%

Cc1cnn(C2CCCN(C(=O)c3cc(-c4ccco4)[nH]n3)C2)c1 (stereo not given)
cytotoxicity at 70.5 h: -11.8%

COCC(=O)N1CCCC(c2nc(N(C)C)ncc2-c2ccccc2)C1 (stereo not given)
cytotoxicity at 70.5 h: 4.41%

CCOC(=O)NC1CCCN(Cc2ccc(-n3cncn3)c(C)c2)C1 (stereo not given)
cytotoxicity at 70.5 h: -0.7%

CN(C)C(=O)CCCn1ccc(NC(=O)NCc2cccc(F)c2)n1
cytotoxicity at 70.5 h: -16.5%

Cc1csc(CNCC2CCCN(C(=O)OC(C)(C)C)C2)n1 (stereo not given)
cytotoxicity at 70.5 h: -1.06%

O=C1[C@@H]2C[C@H](O)CCN2C(=O)CN1CCSc1ccccn1
cytotoxicity at 70.5 h: 0.109%

CC(C)CC(=O)N1CCC(c2nnc3n2CCCCC3)CC1
cytotoxicity at 70.5 h: -0.981%

Cn1ccc(C(=O)N2CCN(CCc3ccccc3)CC2)cc1=O
cytotoxicity at 70.5 h: -1.11%

Cc1cc(C(=O)N2CCC3(CC2)C(=O)N(C)CCN3CC(C)C)c(C)o1
cytotoxicity at 70.5 h: -10.1%

COCC(=O)Nc1ccc(C)cc1-c1nc(C2CC2)no1
cytotoxicity at 70.5 h: -7.26%

CCS(=O)(=O)CCCOc1nc(-c2ccccc2Cl)no1
cytotoxicity at 70.5 h: -96.6%

Cc1ccccc1OCC(=O)N1CCOC2(CNCCOC2)C1 (stereo not given)
cytotoxicity at 70.5 h: -5.6%

CCNC(=O)NC(=O)CN1CCCC1c1nc(C2CCCCC2)co1 (stereo not given)
cytotoxicity at 70.5 h: -7.64%

COCCn1cc(NC(=O)NCC2CCN(c3ccccc3)C2)cn1 (stereo not given)
cytotoxicity at 70.5 h: -3.34%

Cc1ccc(O)c(C(=O)N2C[C@@H](C(=O)O)[C@H](c3ccccc3)C2)c1
cytotoxicity at 70.5 h: 0.313%

Cc1ccc(N2CC[C@@H]3O[C@@H](COCc4cccnc4)CC[C@@H]32)nn1
cytotoxicity at 70.5 h: -3.24%

O=c1[nH]c2nc(N3CCCC3)ncc2c(=O)n1-c1cccc(F)c1
cytotoxicity at 70.5 h: -16.9%

CC[C@H]1CN2CC[C@H]1C[C@@H]2CNC(=O)NC1CCCCC1
cytotoxicity at 70.5 h: 4.29%

Cc1csc(CN2C[C@@H]3COC[C@]3(COCC(=O)N(C)C)C2)n1
cytotoxicity at 70.5 h: -3.08%

CCn1cc2c(n1)C(COC)CN(C(=O)CCOc1ccccc1)C2 (stereo not given)
cytotoxicity at 70.5 h: -12.3%

CCc1ccc(C2NCCc3cc4c(cc32)OCCO4)cc1 (stereo not given)
cytotoxicity at 70.5 h: 8.93%

O=C(Nc1cc(Cl)ccc1N1CCCCC1)c1ccccn1
cytotoxicity at 70.5 h: 7.77%

O=C(Cn1cccc2oc(=O)nc1-2)NCC1Cc2ccccc2O1 (stereo not given)
cytotoxicity at 70.5 h: -5.36%

CN(Cc1ccn[nH]1)C(=O)CCC(=O)NC1CCCC1
cytotoxicity at 70.5 h: -9.97%

O=C(NCCN1CCCCC1=O)C1CCC(=O)N(C2CCCC2)C1 (stereo not given)
cytotoxicity at 70.5 h: -3.21%

CC(C)(C)c1cc(C(=O)N2CCOC(c3cnccn3)C2)[nH]n1 (stereo not given)
cytotoxicity at 70.5 h: 0.63%

c1ccc(NC[C@@H]2CCC[C@@H]3CN(Cc4cc[nH]n4)C[C@@H]32)nc1
cytotoxicity at 70.5 h: -12.4%

Cc1noc(CN(C)CC2CCCN(CCc3ccc(Cl)cc3)C2)n1 (stereo not given)
cytotoxicity at 70.5 h: -11.4%

Cc1cc(N(C)C)nc(N2CCN(Cc3nccn3C)CC2)n1
cytotoxicity at 70.5 h: -5.76%

O=C1NCC2(CCCN(CCc3ccccc3)C2)Oc2ccccc21 (stereo not given)
cytotoxicity at 70.5 h: 21.7%

Cc1ccc(CCNC(=O)N2CCCC(Cc3nccn3C)C2)cn1 (stereo not given)
cytotoxicity at 70.5 h: 1.34%

O=C1NCC(C(=O)Nc2ncc(Cc3ccccc3F)s2)N1 (stereo not given)
cytotoxicity at 70.5 h: 3.26%

CSCC(=O)N1C[C@H](c2ccc(C)o2)[C@@H](N)C1
cytotoxicity at 70.5 h: -3.37%

CN1CCCNC(=O)C12CCN(C(=O)c1ccc3[nH]cnc3c1)CC2
cytotoxicity at 70.5 h: -3.14%

CSCCC(O)C(=O)N(C)Cc1cnn(-c2ccc(F)cc2)c1 (stereo not given)
cytotoxicity at 70.5 h: -3.28%

Cn1c(CN2CCCC(N3CCNC3=O)C2)cc(=O)n(C)c1=O (stereo not given)
cytotoxicity at 70.5 h: 26.4%

CC1(C(=O)NCc2cc(F)cc(F)c2)CCOCC1
cytotoxicity at 70.5 h: -6.71%

O=C1CCCN1Cc1nnc2n1CCN(Cc1ccco1)C2
cytotoxicity at 70.5 h: 2.02%

CS(=O)(=O)N[C@@H]1CCO[C@]2(CCN(C(=O)C3=CCCC3)C2)C1
cytotoxicity at 70.5 h: -10%

CN(CCO)Cc1nnc(C2CCN(C(=O)C3CCOCC3)CC2)n1C
cytotoxicity at 70.5 h: 1.69%

O=C1CC2(CCCC2)CC(=O)N1CCn1cnnc1
cytotoxicity at 70.5 h: -8.05%

CNc1nc2c(s1)C(c1cccc(Cl)c1Cl)CC(=O)N2 (stereo not given)
cytotoxicity at 70.5 h: -8.56%

Cc1nn(C)c(C)c1CN(C(=O)c1cnc(O)cn1)C(C)C
cytotoxicity at 70.5 h: -2.89%

Cc1nc(CN2CCCC(NCc3c(C)nc4sccn34)C2)no1 (stereo not given)
cytotoxicity at 70.5 h: 1.63%

COc1cccc(CC(=O)NCCc2nnc3n2CCCCC3)c1
cytotoxicity at 70.5 h: 18.7%

O=C(N1CCOCC1)N1CCC(Nc2ccncn2)CC1
cytotoxicity at 70.5 h: -7.28%

CCN1CCN(CC(O)c2cc(Cl)ccc2Cl)CC1 (stereo not given)
cytotoxicity at 70.5 h: -8.52%

O=C(CC1CCN(CCN2CCCCC2)CC1)N1CCOCC1
cytotoxicity at 70.5 h: -9.66%

COc1cc(CNCc2c(C)nn(CC(C)C)c2N(C)C)ccn1
cytotoxicity at 70.5 h: 27.3%

COc1ccccc1C(=O)NC(C)CC(=O)O (stereo not given)
cytotoxicity at 70.5 h: -7.64%

CCCc1noc(CS(=O)(=O)CC(=O)NC(C)CCC)n1 (stereo not given)
cytotoxicity at 70.5 h: -5.83%

CCCS(=O)(=O)N1CCN(c2cc(-n3cnc(C)c3C)ncn2)CC1
cytotoxicity at 70.5 h: 2.79%

O=C(O)C1(Cc2ccc(-c3cccs3)cc2)CCNC1 (stereo not given)
cytotoxicity at 70.5 h: -2.56%

O=C(Nc1nnn[nH]1)c1cc(-c2ccc(Br)s2)n[nH]1
cytotoxicity at 70.5 h: -3.48%

O=C(Cc1ccco1)N1C[C@H]2CCC[C@@]2(COCc2cccnc2)C1
cytotoxicity at 70.5 h: -10.4%

CN1C(=O)CC[C@@H]2[C@H]1CCN2S(=O)(=O)c1cccs1
cytotoxicity at 70.5 h: -1.06%

CN(C)C(=O)NCc1nnc2n1CCN(Cc1ccsc1)C2
cytotoxicity at 70.5 h: 3.34%

CCNC(=O)C1CCN(Cc2ccc(C(=O)Nc3cnns3)cc2)C1 (stereo not given)
cytotoxicity at 70.5 h: 1.67%

c1cc(CN2CCc3cncnc3C2)c2c(c1)OCCO2
cytotoxicity at 70.5 h: -6.07%

c1ccc2nc(N3CCCCC3)c(NCc3nnc4n3CCC4)nc2c1
cytotoxicity at 70.5 h: -8.39%

Cc1noc(C(C)SCc2ccccn2)n1 (stereo not given)
cytotoxicity at 70.5 h: -8.37%

CCc1nc(C)c([C@H]2CN(C)C[C@@H]2C(=O)NCc2ccccc2OC)[nH]1
cytotoxicity at 70.5 h: -2.21%

CN(Cc1cccc(C(F)(F)F)c1)Cc1nc(-c2cnccn2)no1
cytotoxicity at 70.5 h: -8.53%

Cc1cc(C)n(C2CCCN(C(=O)c3cc(C(N)=O)cs3)C2)n1 (stereo not given)
cytotoxicity at 70.5 h: 0.983%

CSc1ccccc1C(=O)N1C[C@H]2CC[C@@H]1CN(C(=O)C1CCC1)C2
cytotoxicity at 70.5 h: -4.19%

O=c1[nH]c2ccccc2cc1CNCCCN1CCOCC1
cytotoxicity at 70.5 h: -1.38%

CCN1CC2(CC1=O)CN(C(C)=O)CCN(C(=O)NC)C2 (stereo not given)
cytotoxicity at 70.5 h: -3.8%

Cc1ccccc1Cc1nc(CSc2nnc(N)n2C2CC2)no1
cytotoxicity at 70.5 h: -12.1%

Cc1nnsc1C(=O)N(C)Cc1nc(-c2ccccn2)no1
cytotoxicity at 70.5 h: -2.75%

CC1c2ncc(Cn3cncn3)n2CCN1C1CCOCC1 (stereo not given)
cytotoxicity at 70.5 h: 2.73%

COc1ccc(-c2noc(CN3CC(n4cccn4)C3)n2)c(OC)c1
cytotoxicity at 70.5 h: -7.32%

Cc1ccc(CN2C[C@H]3C[C@H](C(=O)NCc4cccnc4)[C@@H](C2)O3)o1
cytotoxicity at 70.5 h: -8.69%

CCC1CCCCN1S(=O)(=O)c1c(N)noc1C (stereo not given)
cytotoxicity at 70.5 h: -2.36%

COCCn1ccc2c(NC(=O)c3n[nH]c4c3CCC4)cccc21
cytotoxicity at 70.5 h: 1.93%

O=C(c1ncccn1)N1C[C@@H]2CN(Cc3cccnc3)CCO[C@@H]2C1
cytotoxicity at 70.5 h: -5.35%

Cc1nc(CN(C)C2CCCN(c3cccnn3)C2)oc1C (stereo not given)
cytotoxicity at 70.5 h: 3.03%

Cc1ccn(-c2ccccc2NCc2ncc[nH]2)n1
cytotoxicity at 70.5 h: 3.45%

c1ccc(-c2cnc(CNCC3CCCN3c3cccnn3)o2)cc1 (stereo not given)
cytotoxicity at 70.5 h: -5.15%

CCCOCC(=O)NS(=O)(=O)c1ccc2c(c1)OCCCO2
cytotoxicity at 70.5 h: 19.6%

Cc1nc2cc(C3CCN(Cc4cccc(F)c4F)C3)nn2c(O)c1C (stereo not given)
cytotoxicity at 70.5 h: -20.4%

Cn1ccnc1-c1ccccc1C(=O)N1CCc2c(nc(N)[nH]c2=O)C1
cytotoxicity at 70.5 h: -11.8%

O=C(c1cn2ccsc2n1)N1CCOCC(O)(CN2CCCC2)C1 (stereo not given)
cytotoxicity at 70.5 h: 1.73%

COC(=O)[C@@H]1Cc2ncn(C(C)C)c2CN1S(=O)(=O)Cc1ccccc1
cytotoxicity at 70.5 h: -6.37%

CN1CC2(CCCN(Cc3nnc(-c4ccco4)o3)CC2)OC1=O (stereo not given)
cytotoxicity at 70.5 h: -0.887%

CCc1ccc(C(=O)N2CCN(CC(C)O)CC2)o1 (stereo not given)
cytotoxicity at 70.5 h: 2.04%

CC(C)c1nccn1C1CCCN(C(=O)c2ccn(C)c(=O)c2)C1 (stereo not given)
cytotoxicity at 70.5 h: -4.13%

O=C1CCC2(CCNCC2)CN1Cc1nnc2ccccn12
cytotoxicity at 70.5 h: -5.01%

O=C(COC1CCCC1)N1CCCC1c1noc(C2CC2)n1 (stereo not given)
cytotoxicity at 70.5 h: -9.93%

CCc1nc2n(n1)CC(NCc1ccccc1OCC(=O)NC)CC2 (stereo not given)
cytotoxicity at 70.5 h: -2.9%

O=C(c1ccccc1)N1CC[C@H]2C[C@H](c3nccs3)O[C@@H]2C1
cytotoxicity at 70.5 h: -11.2%

Cc1ccc(-c2cc(C(=O)NCCN3CCCS3(=O)=O)[nH]n2)o1
cytotoxicity at 70.5 h: -14.9%

CCN(C(=O)Cc1ccc(NCc2ncc[nH]2)cc1)c1ccccc1
cytotoxicity at 70.5 h: -5.61%

Cc1nnc(CN2CCCC2c2c(C)nn(C)c2Cl)o1 (stereo not given)
cytotoxicity at 70.5 h: -11.6%

Cc1csc(CN2C[C@@H]3CN(CC4CCOCC4)CCO[C@@H]3C2)n1
cytotoxicity at 70.5 h: -6.62%

Cc1cc(C)n(CC(C)CNC(=O)N(C)Cc2cc(C)on2)n1 (stereo not given)
cytotoxicity at 70.5 h: -8.81%

COCC(=O)N1CCC(c2nccn2CC2CC2)CC1
cytotoxicity at 70.5 h: -8.88%

Cc1cc(N2CCC3(CC2)C(C(=O)O)CC(=O)N3C)nc2ccccc12 (stereo not given)
cytotoxicity at 70.5 h: -6.81%

O=C(NC[C@]12COC[C@H]1CN(CC1CCOCC1)C2)c1ccco1
cytotoxicity at 70.5 h: -3.33%

O=C(N1CCCO1)[C@@]12CCO[C@@H]1CCN(C1CCCCC1)C2
cytotoxicity at 70.5 h: 14%

CN(C)c1ccc(CC(=O)N2C[C@H](C3CC3)[C@@H](N)C2)cc1
cytotoxicity at 70.5 h: 0.366%

O=C(NCC1CCCCC1)N1C[C@H]2C[C@H](C(=O)N3CCOCC3)[C@@H](C1)O2
cytotoxicity at 70.5 h: 24.6%

COc1cccc([C@@]2(O)CC[C@@H]3CN(C(=O)c4ccn(C)n4)C[C@@H]32)c1
cytotoxicity at 70.5 h: -6.49%

C=C/C=c1\c(=C/C)oc2c(NCc3ccccc3)nc(C)nc12
cytotoxicity at 70.5 h: 13.2%

CCc1oc(C(=O)N2CC[C@H]3CC[C@@H](C2)N3)cc1CN(CC)CC
cytotoxicity at 70.5 h: -8.75%

CN(Cc1nccn1CC(F)(F)F)C(=O)c1cccc(N(C)C)c1
cytotoxicity at 70.5 h: 0.768%

Source: ChEMBL document CHEMBL3507680, “University of Dundee, Gates Library screen for HepG2 cell viability”
